In the experiment the target is T1, Androgen Receptor (Homo sapiens, UniProt P10275).
T1 construct: endogenous in cells; host or cells: VCaP cells
T1 sequence (P10275 1-920): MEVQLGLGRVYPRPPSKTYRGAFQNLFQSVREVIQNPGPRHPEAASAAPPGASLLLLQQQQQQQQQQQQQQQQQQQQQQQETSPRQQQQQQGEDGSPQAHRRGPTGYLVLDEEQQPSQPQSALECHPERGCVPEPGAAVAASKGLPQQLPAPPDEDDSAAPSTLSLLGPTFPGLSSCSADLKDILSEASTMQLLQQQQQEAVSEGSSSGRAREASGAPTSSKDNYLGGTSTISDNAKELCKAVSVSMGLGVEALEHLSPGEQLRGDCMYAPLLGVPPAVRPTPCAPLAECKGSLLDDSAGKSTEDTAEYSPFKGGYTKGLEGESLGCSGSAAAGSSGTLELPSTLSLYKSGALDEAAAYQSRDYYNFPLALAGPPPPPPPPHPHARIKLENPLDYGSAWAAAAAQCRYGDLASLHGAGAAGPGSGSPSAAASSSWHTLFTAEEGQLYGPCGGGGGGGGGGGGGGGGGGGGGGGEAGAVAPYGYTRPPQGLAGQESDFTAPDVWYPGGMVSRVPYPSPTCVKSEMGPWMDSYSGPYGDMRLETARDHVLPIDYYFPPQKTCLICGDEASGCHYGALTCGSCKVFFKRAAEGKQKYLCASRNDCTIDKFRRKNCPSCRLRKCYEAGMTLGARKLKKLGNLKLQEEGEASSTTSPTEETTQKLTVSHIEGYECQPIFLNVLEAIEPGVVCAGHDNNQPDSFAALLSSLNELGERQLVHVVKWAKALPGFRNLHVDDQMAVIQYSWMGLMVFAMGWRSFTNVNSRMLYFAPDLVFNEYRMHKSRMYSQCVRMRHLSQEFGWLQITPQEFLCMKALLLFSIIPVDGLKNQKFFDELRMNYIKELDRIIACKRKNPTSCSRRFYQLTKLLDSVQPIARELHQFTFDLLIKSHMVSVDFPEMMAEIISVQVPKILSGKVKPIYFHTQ
Kind of experiment: Androgen Receptor ELISA assay (PathScan AR ELISA) in VCaP cells: AR degradation, Dmax and DC50. The format is cell-based. The method in brief: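 After 24 h exposure of VCaP cells (charcoal-stripped serum, 0.1 nM R1881 agonist, 0.1% DMSO) to seven half-log compound concentrations, residual AR in lysates was measured by PathScan ELISA (TMB absorbance, 450 nm). Cells were plated at 30,000/well and grown at least 3 days beforehand.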

[1] abbreviates: VCaP cells; Table 34; read-out: VCaP DC50.
The mark [2] stands for this setting: VCaP, VCaP cells; Table 34; read-out: VCaP Dmax (%).
Where [3] appears, read: read-out: VCaP DC50; VCaP cells; Table 34.
Setting [4] is: read-out: VCaP DC50; VCaP cells; Table 35.
The mark [5] stands for this setting: VCaP cells; Table 35; read-out: VCaP DC50.
Setting [6] is: VCaP, VCaP cells; Table 35; read-out: VCaP Dmax (%).

Read-outs that look alike come from different tables or passages of the source.

For orientation: DC50 means the midpoint of the concentration-degradation curve. What is called Dmax is the greatest extent of degradation seen. Take `Cc1ncsc1-c1ccc(CNC(=O)[C@@H]2C[C@@H](O)CN2C(=O)[C@@H](NC(=O)COCCCCNC(=O)c2ccc(C(=O)N[C@H]3C(C)(C)[C@H](Oc4ccc(C#N)c(Cl)c4)C3(C)C)cc2)C(C)(C)C)cc1` [Example 398]: the half-maximal degradation concentration (DC50) under setting [1] is less than 50 nM. Besides, under setting [2], the greatest degradation seen (Dmax) was 26 to 50%.

For `Cc1ncoc1-c1ccc(CNC(=O)[C@@H]2C[C@@H](O)CN2C(=O)[C@@H](NC(=O)COCCCCOc2ccc(-c3ccc(N4C(=S)N(c5ccc(C#N)c(C(F)(F)F)c5)C(=O)C4(C)C)cc3F)cc2)C(C)(C)C)cc1` [Example 399], the Dmax (VCaP, read-out: VCaP Dmax (%)) was more than 71%. For the same molecule, the half-maximal degradation concentration (DC50) under setting [3] is less than 50 nM.

As for `Cc1ncsc1-c1ccc(CNC(=O)[C@@H]2C[C@@H](O)CN2C(=O)[C@@H](NC(=O)COCCCCOc2ccc(-c3ccc(N4C(=S)N(c5ccc(C#N)c(C(F)(F)F)c5)C(=O)C4(C)C)cc3F)cc2)C(C)(C)C)cc1` [Example 400], the Dmax (VCaP, read-out: VCaP Dmax (%)) was more than 71%. Further, under setting [3], the half-maximal degradation concentration (DC50) is less than 50 nM.

Turning to `Cc1ncsc1-c1ccc([C@H](C)NC(=O)[C@@H]2C[C@@H](O)CN2C(=O)[C@@H](NC(=O)COCCCCOc2ccc(-c3ccc(N4C(=S)N(c5ccc(C#N)c(C(F)(F)F)c5)C(=O)C4(C)C)cn3)cn2)C(C)(C)C)cc1` [Example 401], where the note is “VCaP, read-out: VCaP Dmax (%)”, the maximal degradation (Dmax) was more than 71%. Moreover, the 50% degradation concentration (DC50) under setting [3] is less than 50 nM.

For the molecule `Cc1ncoc1-c1ccc(CNC(=O)[C@@H]2C[C@@H](O)CN2C(=O)[C@@H](NC(=O)COCCCNC(=O)c2ccc(-c3ccc(N4C(=S)N(c5ccc(C#N)c(C(F)(F)F)c5)C(=O)C4(C)C)cc3)cc2)C(C)(C)C)cc1` [Example 402], under “VCaP, read-out: VCaP Dmax (%)”, the Dmax was 51 to 70%. Also, under setting [3], the DC50 was less than 50 nM.

As for `Cc1ncsc1-c1ccc(CNC(=O)[C@@H]2C[C@@H](O)CN2C(=O)[C@@H](NC(=O)COCCCCOc2ccc(-c3ccc(N4C(=S)N(c5ccc(C#N)c(C(F)(F)F)c5)C(=O)C4(C)C)cc3)c(O)c2)C(C)(C)C)cc1` [Example 403], the Dmax (VCaP, read-out: VCaP Dmax (%)) was in the range of 51 to 70%. Moreover, the DC50 under setting [3] was less than 50 nM.

As to `Cc1ncsc1-c1ccc(CNC(=O)[C@@H]2C[C@@H](O)CN2C(=O)[C@@H](NC(=O)COCCC2CCN(c3ccc(C(=O)N[C@H]4C(C)(C)[C@H](Oc5ccc(C#N)c(Cl)c5)C4(C)C)cc3)CC2)C(C)(C)C)cc1` [Example 404], the DC50 under setting [1] was less than 50 nM. The Dmax under setting [2] is more than 71%.

In the case of `Cc1ncsc1-c1ccc(CNC(=O)[C@@H]2C[C@@H](O)CN2C(=O)[C@@H](NC(=O)CO[C@H](C)c2ccc(Oc3ccc(C(=O)N[C@H]4C(C)(C)[C@H](Oc5ccc(C#N)c(Cl)c5)C4(C)C)cc3)cc2)C(C)(C)C)cc1` [Example 405], the 50% degradation concentration (DC50) under setting [1] was less than 50 nM. Further, the Dmax under setting [2] is more than 71%.

With `Cc1ncsc1-c1ccc(CNC(=O)[C@@H]2C[C@@H](O)CN2C(=O)[C@@H](NC(=O)CO[C@@H](C)c2ccc(Oc3ccc(C(=O)N[C@H]4C(C)(C)[C@H](Oc5ccc(C#N)c(Cl)c5)C4(C)C)cc3)cc2)C(C)(C)C)cc1` [Example 406], the DC50 under setting [1] was less than 50 nM. For the same molecule, the Dmax under setting [2] was more than 71%.

As to `CC(C)(C)[C@H](NC(=O)COCCCCOc1ccc(C(=O)N[C@H]2C(C)(C)[C@H](Oc3ccc(C#N)c(Cl)c3)C2(C)C)cc1)C(=O)N1C[C@H](O)C[C@H]1C(=O)NCc1ccc(-c2ccccc2)cc1` [Example 407], the DC50 under setting [1] was less than 50 nM. Further, the Dmax under setting [2] is 51 to 70%.

For `Cc1ncsc1-c1ccc(CNC(=O)[C@@H]2C[C@@H](O)CN2C(=O)[C@@H](NC(=O)COCCCCOc2ccc(-c3ccc(N4C(=S)N(c5ccc(C#N)c(C(F)(F)F)c5)C(=O)C4(C)C)cc3)cc2O)C(C)(C)C)cc1` [Example 408], the Dmax (VCaP, read-out: VCaP Dmax (%)) was 51 to 70%. Also, the 50% degradation concentration (DC50) under setting [3] is less than 50 nM.

`Cc1ncsc1-c1ccc(CNC(=O)[C@@H]2C[C@@H](O)CN2C(=O)[C@@H](NC(=O)COCCCNC(=O)c2ccc(C(=O)N[C@H]3C(C)(C)[C@H](Oc4ccc(C#N)c(Cl)c4)C3(C)C)cc2)C(C)(C)C)cc1` [Example 409]: the DC50 under setting [1] was less than 50 nM. In addition, under setting [2], the Dmax was 51 to 70%.

Consider `Cc1ncsc1-c1ccc(CNC(=O)[C@@H]2C[C@@H](O)CN2C(=O)[C@@H](NC(=O)COCC2CCN(c3ccc(C(=O)N[C@H]4C(C)(C)[C@H](Oc5ccc(C#N)c(Cl)c5)C4(C)C)cc3)CC2)C(C)(C)C)cc1` [Example 410], for which the DC50 under setting [1] is less than 50 nM. Further, the maximal degradation (Dmax) under setting [2] is more than 71%.

Turning to `Cc1ncoc1-c1ccc([C@H](C)NC(=O)[C@@H]2C[C@@H](O)CN2C(=O)[C@@H](NC(=O)COCCCCNc2ccc(C(=O)N[C@H]3C(C)(C)[C@H](Oc4ccc(C#N)c(Cl)c4)C3(C)C)cc2)C(C)(C)C)cc1` [Example 411], the half-maximal degradation concentration (DC50) under setting [1] was less than 50 nM. Moreover, under setting [2], the Dmax was more than 71%.

Regarding `CC(C)(C)[C@H](NC(=O)COCCCCNc1ccc(C(=O)N[C@H]2C(C)(C)[C@H](Oc3ccc(C#N)c(Cl)c3)C2(C)C)cc1)C(=O)N1C[C@H](O)C[C@H]1C(=O)NCc1ccc(-c2scnc2C2CC2)cc1` [Example 412], under setting [1], the DC50 was less than 50 nM. Besides, under setting [2], the Dmax is 51 to 70%.

Regarding `Cc1ncsc1-c1ccc(CNC(=O)[C@@H]2C[C@@H](O)CN2C(=O)[C@@H](NC(=O)COc2ccc(OCC#Cc3ccc(N4C(=S)N(c5ccc(C#N)c(C(F)(F)F)c5)C(=O)C4(C)C)cc3)cc2)C(C)(C)C)cc1` [Example 413], the maximal degradation (Dmax) (VCaP, read-out: VCaP Dmax (%)) was in the range of 51 to 70%. In addition, under setting [3], the half-maximal degradation concentration (DC50) was less than 50 nM.

As for `CCOC(=O)c1ncsc1-c1ccc(CNC(=O)[C@@H]2C[C@@H](O)CN2C(=O)[C@@H](NC(=O)COCCCCOc2ccc(-c3ccc(N4C(=S)N(c5ccc(C#N)c(C(F)(F)F)c5)C(=O)C4(C)C)cc3)cc2)C(C)(C)C)cc1` [Example 414], the Dmax (VCaP, read-out: VCaP Dmax (%)) is less than 25%. Also, the DC50 under setting [3] was less than 50 nM.

On to `CCc1ncsc1-c1ccc(CNC(=O)[C@@H]2C[C@@H](O)CN2C(=O)[C@@H](NC(=O)COCCCCNc2ccc(C(=O)N[C@H]3C(C)(C)[C@H](Oc4ccc(C#N)c(Cl)c4)C3(C)C)cc2)C(C)(C)C)cc1` [Example 415], for which, under setting [1], the DC50 is less than 50 nM. The Dmax under setting [2] is more than 71%.

In the case of `Cc1ncsc1-c1ccc(CNC(=O)[C@@H]2C[C@@H](O)CN2C(=O)[C@@H](NC(=O)COCCCCNc2ccc(C(=O)N[C@H]3C(C)(C)[C@H](Oc4ccc(C#N)c(Cl)c4)C3(C)C)cn2)C(C)(C)C)cc1` [Example 416], the DC50 under setting [1] is 51 to 500 nM. Also, the maximal degradation (Dmax) under setting [2] was in the range of 26 to 50%.

On to `Cc1ncsc1-c1ccc(CNC(=O)[C@@H]2C[C@@H](O)CN2C(=O)[C@@H](NC(=O)COc2ccccc2CCCOc2ccc(C(=O)N[C@H]3C(C)(C)[C@H](Oc4ccc(C#N)c(Cl)c4)C3(C)C)cc2)C(C)(C)C)cc1` [Example 417], for which, under setting [1], the half-maximal degradation concentration (DC50) is less than 50 nM. The greatest degradation seen (Dmax) under setting [2] is more than 71%.

As to `Cc1ncsc1-c1ccc([C@H](C)NC(=O)[C@@H]2C[C@@H](O)CN2C(=O)[C@@H](C(C)C)n2cc(OCCCOCCC(O)CCOc3ccc(N4C(=S)N(c5ccc(C#N)c(C(F)(F)F)c5)C(=O)C4(C)C)cc3)cn2)cc1` (stereo partly shown) [Example 418], for the setting “VCaP, read-out: VCaP Dmax (%)”, the greatest degradation seen (Dmax) was 51 to 70%. Moreover, the half-maximal degradation concentration (DC50) under setting [4] was less than 50 nM.

Consider `Cc1ncsc1-c1ccc([C@H](C)NC(=O)[C@@H]2C[C@@H](O)CN2C(=O)[C@H](C(C)C)n2cc(OCCCOCCC(O)CCOc3ccc(N4C(=S)N(c5ccc(C#N)c(C(F)(F)F)c5)C(=O)C4(C)C)cc3)cn2)cc1` (stereo partly shown) [Example 419], for which the Dmax (VCaP, read-out: VCaP Dmax (%)) was 26 to 50%. The 50% degradation concentration (DC50) under setting [4] was less than 50 nM.

In the case of `Cc1ncsc1-c1ccc(CNC(=O)[C@@H]2C[C@@H](O)CN2C(=O)[C@@H](NC(=O)COCC2CCN(c3ccc(-c4ccc(N5C(=S)N(c6ccc(C#N)c(C(F)(F)F)c6)C(=O)C5(C)C)cc4)cn3)CC2)C(C)(C)C)cc1` [Example 420], the Dmax (VCaP, read-out: VCaP Dmax (%)) was 51 to 70%. For the same molecule, under setting [4], the DC50 lay within 51 to 500 nM.

As to `Cc1ncsc1-c1ccc([C@H](C)NC(=O)[C@@H]2C[C@@H](O)CN2C(=O)[C@@H](NC(=O)c2cc3ccc(OC4CN(c5ncc(C(=O)N[C@H]6C(C)(C)[C@H](Oc7ccc(C#N)c(Cl)c7)C6(C)C)cn5)C4)cc3o2)C(C)(C)C)cc1` [Example 422], the 50% degradation concentration (DC50) under setting [5] is less than 50 nM. For the same molecule, the greatest degradation seen (Dmax) under setting [6] is more than 71%.

With `Cc1ncsc1-c1ccc([C@H](C)NC(=O)[C@@H]2C[C@@H](O)CN2C(=O)[C@@H](C(C)C)n2cc(Oc3cccc(OCCCCCOc4ccc(N5C(=S)N(c6ccc(C#N)c(C(F)(F)F)c6)C(=O)C5(C)C)cc4)c3)cn2)nc1` [Example 424], the Dmax (VCaP, read-out: VCaP Dmax (%)) was less than 25%. Also, the 50% degradation concentration (DC50) under setting [4] is more than 501 nM.

With `Cc1nccn1-c1ccc([C@H](C)NC(=O)[C@@H]2C[C@@H](O)CN2C(=O)[C@@H](NC(=O)COCCNc2ccc(-c3ccc(C(=O)N[C@H]4C(C)(C)[C@H](Oc5ccc(C#N)c(Cl)c5)C4(C)C)cc3)cn2)C(C)(C)C)cc1` [Example 425], the half-maximal degradation concentration (DC50) under setting [5] was less than 50 nM. Under setting [6], the Dmax is more than 71%.

(Values after patent US11427548B2 (Arvinas Operations, Inc., priority 2015, dated 2022).)
